Measured values as given in ChEMBL document CHEMBL2375354, “Total synthesis of the marine cyclic depsipeptide viequeamide a” (J Nat Prod, 2013).
Numbered stars: 1 amine (or outer) side, 2 acyl side, 3 side chain; on linkers, the order of the positions; unused ones are H or OH. Bridge positions count the residues as written; N and C are the ends. Square brackets hold non-standard residues; d marks the D form. Peptide text beside a SMILES is read from it. X1 = C#CCCC[C@H](O[*:2])C(C)(C)C(=O)[*:1]; Hmp(2R,3S) = CC[C@H](C)[C@@H](O)C(=O)O; NMeV = CN[C@H](C(=O)O)C(C)C

Experiments:
[1] = Cytotoxicity against human KB/VCR cells by SRB assay; type: functional, cell-based
[2] = Cytotoxicity against human H460 cells by SRB assay; type: functional, cell-based; details: NCI-H460
KB = assay: Cytotoxicity against human KB cells by SRB assay; type: functional, cell-based
[3] = Stability of the compound in DMSO by HPLC analysis; type: physicochemical
A549 = assay: Cytotoxicity against human A549 cells by SRB assay; type: functional, cell-based

Stability [3]: Unstable
SMILES: C#CCCC[C@@H]1OC(=O)[C@H]([C@@H](C)O)NC(=O)[C@H](C(C)C)N(C)C(=O)[C@@H]2CCCN2C(=O)[C@@H]([C@@H](C)CC)OC(=O)[C@H](C(C)C)N(C)C(=O)[C@H](C(C)C)NC(=O)C1(C)C [VIEQUEAMIDE A] (V[NMeV][Hmp(2R,3S)]P[NMeV]T; linker N-C via X1)
IC50 [1]: < 100 µM
IC50 [2]: < 100 µM
IC50 (KB): < 100 µM
IC50 (A549): < 100 µM
